Drawing on patent US20040235900A1, “Antimicrobial oxazolifinones with improved pharmacokinetic profile and safety advantages” (priority 2002, published 2004), this text covers MIC, melting point and ED50 for one compound.

≈ marks a conversion by molar mass, not a printed value.

The subject of series [1] is Methicillin Resistant Staphylococcus aureus MRSA-32. The experiment in a line: In-vitro MIC test (agar dilution), MRSA-32. It counts as cell-based. To be noted: Staphylococcus aureus, MRSA; Mueller Hinton agar, 24 hrs at 35° C.; read-out: Minimum Inhibitory Concentrations (MIC) MRSA-32. From the text: (§1) The test methods used for verifying the antimicrobial action of compound within the scope of this invention are essentially the same as those described in PCT WO 95/25106, U.S. Pat. No. 5,668,286 and EP 0 750, 618 B1, with the difference that the strains of the organisms used for the MIC determinations in these patents and applications are Staphylococcus aureus ATCC 25923, Staphylococcus epidermidis ATCC 12828, Streptococcus pyogenes ATCC 19615.
(§2) The in-vitro MIC methods of test compounds were determined essentially as described in PCT WO 95/25106, U.S. Pat. No. 5,668,286 and EP 0 750 618 B1.
(§3) Overnight grown cultures of S. aureus organisms in Tryptic Soya broth were diluted in Mueller Hinton Broth to give optical density matching with MacFarland tube 0.5 standard. Cultures were further diluted 1:10 in Mueller Hinton broth. Using Denley's mutipoint inoculator, 10^4 cells were deposited on Mueller Hinton agar (Difco) containing range of 2 fold dilutions of test compounds. These plates were incubated for 24 hrs at 35° C. and MIC results recorded. MIC is defined as minimum drug concentration that inhibits test organisms. For determining MIC of test compounds against Streptococcus pneumoniae, Mueller Hinton agar containing 5% sheep blood was employed.

The subject of series [2] is Enterococcus faecalis ATCC 29212. Nature of the series: In-vitro MIC test (agar dilution), E. faecalis. To be noted: ATCC29212, Mueller Hinton agar, 24 hrs at 35° C., read-out: Minimum Inhibitory Concentrations (MIC) E. faecalis. The series is classed as cell-based.
Text: as §1, §2, §3
(Agar dilution tests growth on a series of plates holding different concentrations.)

In series [3] the test system is Streptococcus pneumoniae ATCC 49619. Nature of the series: In-vitro MIC test (agar dilution, 5% sheep blood), S. pneumoniae. It counts as cell-based. Particulars: ATCC49619, Mueller Hinton agar containing 5% sheep blood, read-out: Minimum Inhibitory Concentrations (MIC) S. pneumoniae.
Text: as §1, §2, §3

In series [4] the test system is MRSA 32. The experiment in a line: Murine assay procedure (systemic MRSA 32 infection, oral treatment). It counts as in vivo, swiss mice. To be noted: Staphylococcus aureus; oral administration, doses 1 hr and 4 hrs after infection; MRSA 32 infected mice; percentage survival on Day 7. On the procedure: Oxazolidinone new chemical entities (NCEs) were evaluated for their in vivo efficacy in a murine infection caused by multi-drug resistant, methicillin resistant Staphylococcus aureus strain, referred to as MRSA 32, a clinical isolate obtained from a hospitalised patient. The procedure used for the murine assay is as follows:
Four weeks old swiss mice of 18-22 gm body weight were infected with MRSA 32 strain suspended in 5% Hog gastric Mucin. The infecting dose of bacteria was set at 1-2×10^8 CFU/animal. The infecting dose was administered in 0.5 ml volume injected into peritonial cavity of mice. The treatment with oxazolidinone NCEs was started one hour after infection by administering 100-200 μl of the suspensions of oxazolidinone compounds in 5% Tween 80 by oral gavage. A repeat dose was similarly administered 3 hrs later. Each oxazolidinone NCE was tested at 2-3 different dosages in the range of 2.5 mg/kg to 20 mg/kg. In each dose group 6 mice were included. As an infection control group 12 mice were infected with MRSA 32 strain without giving any treatment. Normally untreated infected mice die within 24 hrs. due to the systemic spread of infection through out the animal body. […] For compounds affording protection of MRSA infected mice, ED50 dosages were calculated on the basis of percentage survival on Day 7 after infection.
The in-vivo ED50 values using the test compounds were determined essentially by the method as described in PCT WO 95/25106, U.S. Pat. No. 5,668,286 and EP 0 750 618 B1.

One may read the melting point as the temperature of the solid-liquid transition. As usually defined, the ED50 is the dose that gives a 50% effect, or the effect in half of the subjects. Read a low ED50 as an effect at a small dose.

Take `CC(=O)NC[C@H]1CN(c2ccc(N3CCC(C(C#N)CO)CC3)c(F)c2)C(=O)O1` (stereo partly drawn) [Compound 17, (S)-N-{3-[4-(4-(1-cyano-2-hydroxyethyl)-piperidin-1-yl)-3-fluoro-phenyl]-2-oxo-oxazolidin-5-ylmethyl}-acetamide]: the melting point lay within 182 to 184 °C. For the same compound, the MIC in series [1] came to 2 mg/L (≈ 4.95 µM). Further, the MIC in series [2] worked out at 2 mg/L (≈ 4.95 µM). Moreover, the MIC in series [3] amounted to 2 mg/L (≈ 4.95 µM). The 50% effect level in series [4] (ED50) was put at a dose of 20 mg/kg.
